# Assay results reported in US8815007B2, “Alkoxylated polyamines and polyetheramine polyol compositions for foam control” (priority 2007, dated 2014).
# Assay: Equilibrium surface tension, double-probe bubble tensiometer
# Assay type: physicochemical
# Conditions: one bubble per second
# Experimental: The antifoaming properties of the above compositions were evaluated using the blender foam test as described below. Surface tensions were determined using a […] OC-6000 double-probe bubble tensiometer. Equilibrium surface tensions were determined on 0.1% active solutions in deionized water at 25° C. by using a bubble rate of one bubble per second. […] Surface tension measurements were carried out using a Sensation QC-6000 double-probe bubble tensiometer from the Sensation Division of Chem-Dyne Research Corp. of Mesa, Ariz.
substance,measurement,setting,value
diethylenetriamine/2 mol 1-epoxyoctane adduct [Example 2],Surface Tension,"Table 2, 0.1% active solutions in deionized water at 25° C.",36.2 mN/m
same,Surface Tension,"Table 3, 0.1% active solutions in deionized water at 25 deg C.",36.2 mN/m
